Results published in patent publication US12509447B2, “Small molecule compound” (Technoderma Medicines Pte Ltd, priority 2019, dated 2025).

Tests used:
Type in all cases: biochemical
Tyk2 = Tyk2 (Homo sapiens, UniProt P29597); assay: Inhibition of JAK kinase activity, EZ Reader microfluidic phosphorylation of peptide substrate: Tyk2; conditions: Tyk2 kinase 1 nM; highest final concentration 10 μM, 1:3 serial dilution, 8 points, duplicates
Excerpt: (§1) EZ Reader available from PerkinElmer can be used for detecting the phosphorylation of polypeptide substrates catalyzed by kinases. This device is based on microfluidic separation technology, and can directly detect fluorescence labeled substrates and products. The separation step is achieved in a microfluidic chip by controlling the pressure and electric field intensity. In a kinase experiment, the product conversion rate is generally controlled at 20-30%. This biological assay method is used for identifying the inhibitory effect of the compounds on JAK.
(§2) The compound powder was dissolved in DMSO, sealed and stored in a refrigerator at −20° C. The in-house compound Ref1 was used as a positive control for testing of JAK1, JAK2 and Tyk2, and Ref2 was used as a positive control for testing of JAK3.
(§3) • S2.1. 1M HEPES buffer: 0.5M HEPES free acid and 0.5M HEPES sodium salt are weighed, added into ultrapure water for dissolution, brought to a desired volume, filtered and stored in a refrigerator at 4° C. • S2.2. 40 mM ATP solution: dissolved in a 50 mM HEPES buffer solution, prepared into 40 mM, aliquoted, and cryopreserved in a refrigerator at −20° C. • S2.3. 0.5% Tween 20: 100% Tween 20 was diluted with ultrapure water, and stored in a refrigerator at 4° C. • S2.4. 35% bovine serum albumin: a 35% bovine serum albumin solution is prepared in ultrapure water, aliquoted, and stored in a refrigerator at −20° C. • S2.5. 1M dithiothreitol solution: dithiothreitol is formulated into a 1M solution with ultrapure water, aliquoted, and stored in a refrigerator at −20° C. • S2.6. 0.5 mM Jaktide Peptide substrate solution: it is dissolved in 50 mM HEPES to 0.5 mM, aliquoted, and stored in a refrigerator at −20° C. • S2.7. 0.5 mM IRStide Peptide substrate solution: it is dissolved in 50 mM HEPES to 0.5 mM, aliquoted, and stored in a refrigerator at −20° C. • S2.8. Assay Buffer: 20 mM HEPES buffer, pH 7.4, 10 mM magnesium chloride, 0.01% bovine serum albumin BSA, 0.0005% Tween-20, and a 1 mM dithiothreitol solution. • S2.9. Stop Buffer: 180 mM HEPES buffer, 20 mM ethylenediamine tetraacetic acid (EDTA), and 0.2% Coating Reagent 3. • S2.10. Separation Buffer: 100 mM HEPES buffer, 10 mM EDTA, 0.0005% Tween 20, 0.1% Coating Reagent 3, and 1% dimethyl sulfoxide. 3. Experimental Procedures • S3.1. Preparation of compound plate
(§4) The compound is dissolved in dimethyl sulfoxide to 10 mM, a certain volume is taken and diluted to 0.6 mM, 10 μl of the diluted 0.6 mM solution is taken and added into a 384 microplate or 1:3 serial dilution, with a total of 8 concentration points. • S3.2. Compound layout
(§5) • positive control (HPE1): Ref1, final concentration: 10 μM • positive control (HPE1): Ref2, final concentration: 10 μM • negative control (ZPE): DMSO, with a final concentration of 1.6% • Compound: the highest final concentration at 10 μM, 1:3 serial dilution, with 8 concentration points and in duplicates. 4. Experimental operation steps • S4.1. the experimental plate was added with 250 nl of the compound per well with ECHO, and centrifuged at 1,000 rpm for 1 minute; • S4.2. the precipitate was added with 5 μl of the experimental buffer, and shaken for several seconds to fully dissolve the compound; • S4.3. the solution was added with 5 μl of a 3× substrate solution, as well as 5 μl of a 3× kinase solution, and centrifuged at 800 rpm for 1 minute; • S4.4. The final concentrations of JAK1, JAK2, JAK3 and Tyk2 kinases in the reaction system are 20, 1, 1 and 1 nM, respectively. • S4.5. the reaction system is incubated at room temperature, wherein the incubation time of each kinase is different, and there are differences in incubation time of different batches of kinases. • S4.6. When the reaction reaches 20%-30%, the reaction system is added with 15 μl of the stop buffer to terminate the reaction, and centrifuged at 1,000 rpm for 2 minutes. • S4.7. The precipitate was placed onto a EZ Reader for plate reading. • S4.8. […]

JAK3 = biological target: T1, JAK3 (Homo sapiens, UniProt P52333); assay: Inhibition of JAK kinase activity, EZ Reader microfluidic phosphorylation of peptide substrate: JAK3; conditions: JAK3 kinase 1 nM; highest final concentration 10 μM, 1:3 serial dilution, 8 points, duplicates
T1 sequence (P52333 1-1124): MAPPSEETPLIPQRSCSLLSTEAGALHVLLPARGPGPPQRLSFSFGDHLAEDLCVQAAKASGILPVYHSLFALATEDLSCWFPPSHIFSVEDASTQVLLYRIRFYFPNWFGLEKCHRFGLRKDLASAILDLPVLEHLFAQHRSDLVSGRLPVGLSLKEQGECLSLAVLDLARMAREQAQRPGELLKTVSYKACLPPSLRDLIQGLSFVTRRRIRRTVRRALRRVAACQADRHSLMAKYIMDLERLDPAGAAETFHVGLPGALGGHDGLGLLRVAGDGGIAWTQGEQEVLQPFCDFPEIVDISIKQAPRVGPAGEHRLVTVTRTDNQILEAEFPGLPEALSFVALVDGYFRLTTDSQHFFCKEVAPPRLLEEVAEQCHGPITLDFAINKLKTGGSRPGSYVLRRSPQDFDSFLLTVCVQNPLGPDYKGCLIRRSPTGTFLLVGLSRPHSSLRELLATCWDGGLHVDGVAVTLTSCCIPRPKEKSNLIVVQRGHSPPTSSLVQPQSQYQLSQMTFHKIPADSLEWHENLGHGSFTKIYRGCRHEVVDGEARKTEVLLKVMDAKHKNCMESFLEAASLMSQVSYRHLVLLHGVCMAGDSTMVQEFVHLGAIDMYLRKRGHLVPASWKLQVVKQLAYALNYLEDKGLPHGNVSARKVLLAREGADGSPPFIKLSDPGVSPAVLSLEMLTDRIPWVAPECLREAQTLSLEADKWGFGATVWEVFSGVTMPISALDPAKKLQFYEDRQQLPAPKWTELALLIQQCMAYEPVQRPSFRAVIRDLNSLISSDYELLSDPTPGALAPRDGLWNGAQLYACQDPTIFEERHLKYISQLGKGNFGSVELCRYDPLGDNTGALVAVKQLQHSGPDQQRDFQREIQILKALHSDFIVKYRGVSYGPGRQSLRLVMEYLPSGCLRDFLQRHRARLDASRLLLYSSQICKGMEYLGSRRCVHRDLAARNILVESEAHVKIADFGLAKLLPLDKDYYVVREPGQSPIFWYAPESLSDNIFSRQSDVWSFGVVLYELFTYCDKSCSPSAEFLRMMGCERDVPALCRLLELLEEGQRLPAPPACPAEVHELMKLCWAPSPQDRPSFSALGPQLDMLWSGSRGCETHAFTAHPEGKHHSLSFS
Excerpt: as §1, §2, §3, §4, §5

JAK1 = JAK1 (Homo sapiens, UniProt P23458); assay: Inhibition of JAK kinase activity, EZ Reader microfluidic phosphorylation of peptide substrate: JAK1; conditions: JAK1 kinase 20 nM; highest final concentration 10 μM, 1:3 serial dilution, 8 points, duplicates
JAK1, sequence (P23458 whole entry): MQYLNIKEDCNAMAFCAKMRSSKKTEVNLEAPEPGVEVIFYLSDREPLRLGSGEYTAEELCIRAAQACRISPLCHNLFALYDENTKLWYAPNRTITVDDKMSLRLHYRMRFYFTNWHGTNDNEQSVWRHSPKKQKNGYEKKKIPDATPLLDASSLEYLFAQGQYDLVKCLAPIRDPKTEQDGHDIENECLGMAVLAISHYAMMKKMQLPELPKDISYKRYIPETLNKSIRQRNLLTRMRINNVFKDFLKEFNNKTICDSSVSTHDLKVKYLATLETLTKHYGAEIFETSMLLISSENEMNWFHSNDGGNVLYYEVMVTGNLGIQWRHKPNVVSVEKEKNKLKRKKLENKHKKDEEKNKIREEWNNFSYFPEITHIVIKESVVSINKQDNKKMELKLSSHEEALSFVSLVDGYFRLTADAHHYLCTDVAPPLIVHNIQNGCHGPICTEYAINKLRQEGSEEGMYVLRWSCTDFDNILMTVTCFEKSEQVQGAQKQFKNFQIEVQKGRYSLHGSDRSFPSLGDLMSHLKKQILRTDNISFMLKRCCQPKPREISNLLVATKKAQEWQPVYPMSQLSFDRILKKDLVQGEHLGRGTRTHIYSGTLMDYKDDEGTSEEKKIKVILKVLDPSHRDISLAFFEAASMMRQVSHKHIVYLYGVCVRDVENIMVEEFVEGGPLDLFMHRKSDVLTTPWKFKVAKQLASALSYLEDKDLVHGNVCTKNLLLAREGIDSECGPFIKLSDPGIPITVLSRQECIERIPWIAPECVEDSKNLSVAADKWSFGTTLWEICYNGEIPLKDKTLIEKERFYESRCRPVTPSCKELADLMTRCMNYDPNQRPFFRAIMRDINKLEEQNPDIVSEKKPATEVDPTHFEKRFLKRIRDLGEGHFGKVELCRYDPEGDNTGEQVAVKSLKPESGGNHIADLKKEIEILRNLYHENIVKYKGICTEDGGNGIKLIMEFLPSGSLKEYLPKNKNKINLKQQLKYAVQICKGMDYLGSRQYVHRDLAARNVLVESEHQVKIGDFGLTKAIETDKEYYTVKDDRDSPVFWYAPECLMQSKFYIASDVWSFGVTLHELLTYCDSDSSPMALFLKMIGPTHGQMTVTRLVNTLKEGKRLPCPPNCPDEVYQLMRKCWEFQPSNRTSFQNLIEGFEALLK
Excerpt: as §1, §2, §3, §4, §5

JAK2 = JAK2 (Homo sapiens, UniProt O60674); assay: Inhibition of JAK kinase activity, EZ Reader microfluidic phosphorylation of peptide substrate: JAK2; conditions: JAK2 kinase 1 nM; highest final concentration 10 μM, 1:3 serial dilution, 8 points, duplicates
JAK2, sequence (O60674 whole entry): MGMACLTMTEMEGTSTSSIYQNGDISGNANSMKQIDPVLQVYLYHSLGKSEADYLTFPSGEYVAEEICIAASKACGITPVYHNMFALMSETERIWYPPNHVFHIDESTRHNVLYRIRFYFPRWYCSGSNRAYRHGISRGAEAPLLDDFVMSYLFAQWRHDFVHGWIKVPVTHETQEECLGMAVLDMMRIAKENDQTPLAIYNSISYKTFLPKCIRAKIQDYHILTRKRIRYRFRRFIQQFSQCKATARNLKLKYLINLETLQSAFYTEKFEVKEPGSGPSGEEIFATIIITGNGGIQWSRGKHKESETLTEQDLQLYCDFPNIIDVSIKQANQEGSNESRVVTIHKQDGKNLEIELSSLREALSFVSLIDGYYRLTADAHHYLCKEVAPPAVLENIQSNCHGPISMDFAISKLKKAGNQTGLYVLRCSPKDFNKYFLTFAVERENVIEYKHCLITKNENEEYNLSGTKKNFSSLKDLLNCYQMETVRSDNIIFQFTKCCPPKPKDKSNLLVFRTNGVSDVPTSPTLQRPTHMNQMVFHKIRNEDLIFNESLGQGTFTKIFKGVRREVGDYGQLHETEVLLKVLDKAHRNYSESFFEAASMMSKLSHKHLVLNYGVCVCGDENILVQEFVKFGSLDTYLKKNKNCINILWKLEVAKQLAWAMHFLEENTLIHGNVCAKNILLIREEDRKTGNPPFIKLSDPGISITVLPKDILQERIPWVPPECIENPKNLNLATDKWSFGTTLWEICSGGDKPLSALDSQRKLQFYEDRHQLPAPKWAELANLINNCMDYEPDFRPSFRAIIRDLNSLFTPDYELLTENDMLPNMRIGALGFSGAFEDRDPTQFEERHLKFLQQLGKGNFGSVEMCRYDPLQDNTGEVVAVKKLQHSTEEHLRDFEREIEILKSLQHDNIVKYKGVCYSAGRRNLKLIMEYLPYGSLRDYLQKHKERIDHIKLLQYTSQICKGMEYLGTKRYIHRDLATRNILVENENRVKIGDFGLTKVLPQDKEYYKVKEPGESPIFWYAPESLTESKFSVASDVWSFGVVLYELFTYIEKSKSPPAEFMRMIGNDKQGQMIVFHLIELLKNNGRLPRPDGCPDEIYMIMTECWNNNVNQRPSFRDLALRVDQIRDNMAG
Excerpt: as §1, §2, §3, §4, §5

Tyk2, sequence (P29597 whole entry): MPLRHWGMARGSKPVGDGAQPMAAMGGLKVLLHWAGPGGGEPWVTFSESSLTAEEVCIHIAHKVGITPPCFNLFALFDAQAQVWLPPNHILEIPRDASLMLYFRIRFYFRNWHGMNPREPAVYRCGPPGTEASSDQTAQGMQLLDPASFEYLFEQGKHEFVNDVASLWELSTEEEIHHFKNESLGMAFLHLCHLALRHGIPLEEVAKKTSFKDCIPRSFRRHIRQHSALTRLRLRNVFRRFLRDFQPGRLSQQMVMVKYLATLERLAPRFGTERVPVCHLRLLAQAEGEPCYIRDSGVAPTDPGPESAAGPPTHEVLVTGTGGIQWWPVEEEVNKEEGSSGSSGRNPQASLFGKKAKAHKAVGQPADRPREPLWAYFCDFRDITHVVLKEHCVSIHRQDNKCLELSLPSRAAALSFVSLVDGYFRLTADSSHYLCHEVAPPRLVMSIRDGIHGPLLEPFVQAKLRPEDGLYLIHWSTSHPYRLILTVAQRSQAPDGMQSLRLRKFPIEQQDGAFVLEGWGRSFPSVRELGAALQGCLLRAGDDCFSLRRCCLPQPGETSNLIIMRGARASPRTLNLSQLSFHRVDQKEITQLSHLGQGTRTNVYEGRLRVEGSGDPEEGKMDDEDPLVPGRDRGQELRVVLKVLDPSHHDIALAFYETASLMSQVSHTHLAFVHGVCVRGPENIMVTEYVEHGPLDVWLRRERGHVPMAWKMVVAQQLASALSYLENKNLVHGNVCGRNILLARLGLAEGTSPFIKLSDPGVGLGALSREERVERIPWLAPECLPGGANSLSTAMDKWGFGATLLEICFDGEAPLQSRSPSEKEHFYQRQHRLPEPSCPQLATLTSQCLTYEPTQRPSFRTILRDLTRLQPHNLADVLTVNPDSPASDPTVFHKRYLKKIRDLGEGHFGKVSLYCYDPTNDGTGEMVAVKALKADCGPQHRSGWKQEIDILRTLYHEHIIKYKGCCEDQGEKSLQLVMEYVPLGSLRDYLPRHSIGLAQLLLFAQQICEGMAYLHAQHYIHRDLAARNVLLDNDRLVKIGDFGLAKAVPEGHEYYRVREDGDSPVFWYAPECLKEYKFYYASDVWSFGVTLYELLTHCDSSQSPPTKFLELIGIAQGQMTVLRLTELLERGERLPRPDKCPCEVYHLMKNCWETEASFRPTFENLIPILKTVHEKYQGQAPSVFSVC

SMILES	IC50 (Tyk2) [µM]	IC50 (JAK3) [µM]	IC50 (JAK1) [µM]	IC50 (JAK2) [µM]
Cn1cc(Nc2cc(-c3cnn(C4CN(C(=O)CC(F)(F)F)C4)c3)ccn2)cn1 [TDM-180636, 3,3,3-trifluoro-1-(3-(4-(2-((1-methyl-1H-pyrazol-4-yl)amino)pyridin-4-yl)-1H-pyrazol-1-yl)azetidin-1-yl)propan-1-one]	≥ 10	≥ 10	≥ 10	≥ 10
Cn1cc(Nc2cc(-c3cnn(C4CN(C(=O)C5CC5)C4)c3)ccn2)cn1 [TDM-180637, cyclopropyl(3-(4-(2-((1-methyl-1H-pyrazol-4-yl)amino)pyridin-4-yl)-1H-pyrazol-1-yl)azetidin-1-yl)ketone]	≥ 10	≥ 10	≥ 10	≥ 10
Cn1cc(Nc2cc(-c3cnn(C4CN(C(=O)C5CC5(F)F)C4)c3)ccn2)cn1 (centres unmarked) [TDM-180638]	≥ 10	≥ 10	≥ 10	≥ 10
CCC(=O)N1CC(n2cc(-c3ccnc(Nc4cnn(C)c4)c3)cn2)C1 [TDM-180639, 1-(3-(4-(2-((1-methyl-1H-pyrazol-4-yl)amino)pyridin-4-y1)-1H-pyrazol-1-yl)azetidin-1-yl)propan-1-one]	≥ 10	≥ 10	≥ 10	≥ 10
CCCC(=O)N1CC(n2cc(-c3ccnc(Nc4cnn(C)c4)c3)cn2)C1 [TDM-180640, 1-(3-(4-(2-((1-methyl-1H-pyrazol-4-yl)amino)pyridin-4-yl)-1H-pyrazol-1-yl)azetidin-1-yl)butan-1-one]	≥ 10	≥ 10	≥ 10	≥ 10
Cn1cc(Nc2cc(-c3cnn(C4CN(C(=O)CC#N)C4)c3)ccn2)cn1 [TDM-180641, 3-(3-(4-(2-((1-methyl-1H-pyrazol-4-yl)amino)pyridin-4-yl)-1H-pyrazol-1-yl)azetidin-1-yl)-3-oxypropionitrile]	≥ 10	≥ 10	≥ 10	≥ 10
CCS(=O)(=O)N1CC(n2cc(-c3ccnc(Nc4cnn(C)c4)c3)cn2)C1 [TDM-180642, 4-(1-(1-(ethylsulfonyl)azetidin-3-yl)-1H-pyrazol-4-yl)-N-(1-methyl-1H-pyrazol-4-yl) pyridine-2-amine]	≥ 10	≥ 10	≥ 10	≥ 10
COC(=O)CS(=O)(=O)N1CC(CC#N)(n2cc(-c3ccnc(Nc4cnn(C)c4)n3)cn2)C1 [TDM-180930]	0.1 to 1		0.1 to 1	
Cn1cc(Nc2nccc(-c3cnn(C4(CC#N)CN(S(=O)(=O)CC5CC5)C4)c3)n2)cn1 [TDM-180931, 2-(1-((cyclopropylmethyl)sulfonyl)-3-(4-(2-((1-methyl-1H-pyrazol-4-yl)amino)pyrimidin-4-yl)-1H-pyrazol-1-yl)azetidin-3-yl)acetonitrile]	0.1 to 1		0.1 to 1	
CC(C)S(=O)(=O)N1CC(CC#N)(n2cc(-c3ccnc(Nc4cnn(C)c4)n3)cn2)C1 [TDM-180932, 2-(1-(isopropylsulfonyl)-3-(4-(2-((1-methyl-1H-pyrazol-4-yl)amino)pyrimidin-4-yl)-1H-pyrazol-1-yl)azetidinpyridin-3-yl)acetonitrile]	0.1 to 1		0.1 to 1	
Cn1cc(Nc2nccc(-c3ccn(C4(CC#N)CN(C(=O)[C@@H]5CC5(F)F)C4)c3)n2)cn1 [TDM-180937, (S)-2-(1-(2,2-difluorocyclopropane-1-carbonyl)-3-(3-(2-((1-methyl-1H-pyrazol-4-yl)amino)pyrimidin-4-yl)-1H-pyrrol-1-yl)azetidin-3-yl)acetonitrile]	< 0.1		< 0.1	
Cn1cc(Nc2nccc(-c3ccn(C4(CC#N)CN(C(=O)[C@H]5CC5(F)F)C4)c3)n2)cn1 [TDM-180938, (R)-2-(1-(2,2-difluorocyclopropane-1-carbonyl)-3-(3-(2-((1-methyl-1H-pyrazol-4-yl)amino)pyrimidin-4-yl)-1H-pyrrol-1-yl)azetidin-3-yl)acetonitrile]	0.1 to 1		0.1 to 1	
